Laboratory results as given in patent US7985755B2, “2,4-diaminoquinazolines for spinal muscular atrophy” (Families of Spinal Muscular Atrophy, priority 2006, dated 2011).
Read-outs that look alike come from different tables or passages of the source.

What was measured:
SMN2 promoter = SMN2 promoter assay in NSC-34 cells (β-lactamase reporter); type: cell-based, mouse; conditions: read-out: Promoter Assay EC50
How it was run: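 Compounds were tested for SMN2 promoter activation in NSC-34 cells, a mouse spinal cord–neuroblastoma hybrid line. The cells carry a plasmid in which a 3.4 kb SMN2 promoter fragment drives β-lactamase expression. CCF2-AM enters the cells and is converted by cytoplasmic esterase into an active β-lactamase substrate. Fold induction relative to vehicle (DMSO) control reflects the amount of β-lactamase made and therefore promoter activation.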

[1] = biological target: T1, Human, recombinant dihydrofolate reductase (Homo sapiens, UniProt P00374); experiment: Human DHFR assay; type: biochemical
T1 construct: purchased Sigma D6566
T1 sequence (P00374 1-187): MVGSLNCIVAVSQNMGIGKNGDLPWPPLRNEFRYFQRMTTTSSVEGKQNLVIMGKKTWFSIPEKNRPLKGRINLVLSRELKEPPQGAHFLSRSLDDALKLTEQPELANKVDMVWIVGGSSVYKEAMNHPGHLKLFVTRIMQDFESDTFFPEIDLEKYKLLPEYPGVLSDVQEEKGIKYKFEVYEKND
Procedure: The assay is an adaptation for 96-well plate format from Appleman et al. (Appleman, J R; Howell, E E; Kraut, J; Kuhl, M and Blakley, R L (1988) J. Biol. Chem. 263, 9187-9198). Human, recombinant dihydrofolate reductase (Sigma, D6566) was incubated along with test compounds ([…]) and NADPH (Sigma, N-7505) in 96-well plates. After a 10 min. pre-incubation at room temperature, dihydrofolic acid (Sigma, D7006) was added and the kinetic traces at 340 nm measured on a Spectra Max 190 plate reader at room temperature. Reaction rates were determined from the slopes of the linear portions of the progress curves. The final assay conditions were 0.014 units DHFR, 300 μM NADPH, 30 μM Dihydrofolic acid, 50 mM TRIS, pH 7.6, 100 mM NaCl and 1.25% DMSO. Each compound was measured in duplicates on every assay plate. Each assay plate contained 12 positive controls (DMSO only) and 12 negative controls (no dihydrofolic acid). All data was percent normalized with respect to controls and presented as percent inhibition. Inhibition data was analyzed using Prism and fit to a standard 4-parameter logistic equation to calculate IC50 values.

SMN2 gene = conditions: cultured cells taken from patients with SMA type I; cited from earlier work
[2] = Mus musculus, Table 2, SMN2 promoter driving β-lactamase
[3] = Mus musculus, Table 5, SMN2 promoter driving β-lactamase

Q: Which EC50 (SMN2 promoter; [2]) does the source give for `Nc1nc(N)c2c(OC[C@H]3CC[C@H](Cc4ccccc4Cl)CC3)cccc2n1` [Example-164, 5-[4-(2-Chlorobenzyl)cyclohexylmethoxy]quinazoline-2,4-diamine] here?
A: The EC50 was < 1 µM.

Q: What about the IC50 ([1]; Table 2, read-out: hDHFR IC50) of the same molecule?
A: Its IC50 is > 100 µM.

Q: For `Nc1nc(N)c2c(OCC3CCN(CC(F)(F)F)CC3)cccc2n1` [Example-165], which EC50 (SMN2 promoter; Table 3, SMN2 promoter driving β-lactamase) is on record?
A: The EC50 was < 1 µM.

Q: What about the IC50 ([1]; Table 3, read-out: hDHFR IC50) of the same molecule?
A: Its IC50 is > 100 µM.

Q: What does the source list for `COc1ccccc1CC1CCC(COc2cccc3nc(N)nc(N)c23)CC1` (stereo not shown) [Example-168, 5-[4-(2-Methoxybenzyl)-cyclohexylmethoxy]quinazoline-2,4-diamine]?
A: EC50 (SMN2 promoter; [2]): < 1 µM; IC50 ([1]; Table 2, read-out: hDHFR IC50): < 20 µM

Q: With `Nc1nc(N)c2c(OCCN3CCN(S(=O)(=O)c4ccccc4F)CC3)cccc2n1` [Example-206, 5-{2-[4-(2-Fluoro-benzenesulfonyl)-piperazin-1-yl]-ethoxy}-quinazoline-2,4-diamine] as the molecule, how does the EC50 (SMN2 promoter; [3]) read?
A: Its EC50 is < 1 µM.

Q: What about the IC50 ([1]; Table 5, read-out: hDHFR IC50) of the same molecule?
A: The IC50 was < 20 µM.

Q: With `Nc1nc(N)c2c(OCCN3CCN(C(=O)c4ccc(F)cc4F)CC3)cccc2n1` [Example-207, {4-[2-(2,4-Diamino-quinazolin-5-yloxy)-ethyl]-piperazin-1-yl}-(2,4-difluoro-phenyl)-methanone] as the molecule, how does the EC50 (SMN2 promoter; [3]) read?
A: Its EC50 is < 1 µM.

Q: And the IC50 ([1]; Table 5, read-out: hDHFR IC50)?
A: The IC50 was 20 to 100 µM.

Q: For `Nc1nc(N)c2c(OCCN3CCN(C(=O)c4ccc5c(c4)OCO5)CC3)cccc2n1` [Example-208, Benzo[1,3]dioxol-5-yl-{4-[2-(2,4-diamino-quinazolin-5-yloxy)-ethyl]-piperazin-1-yl}-methanone], which EC50 (SMN2 promoter; [3]) is on record?
A: The EC50 was < 1 µM.

Q: What about the IC50 ([1]; Table 5, read-out: hDHFR IC50) of the same molecule?
A: Its IC50 is < 20 µM.

Q: Which EC50 (SMN2 promoter; [3]) does the source give for `Nc1nc(N)c2c(OCCN3CCN(S(=O)(=O)c4ccccc4)CC3)cccc2n1` [Example-209, 5-[2-(4-Benzenesulfonyl-piperazin-1-yl)-ethoxy]-quinazoline-2,4-diamine] here?
A: Its EC50 is < 1 µM.

Q: What about the IC50 ([1]; Table 5, read-out: hDHFR IC50) of the same molecule?
A: The IC50 was < 20 µM.

Q: For `Nc1nc(N)c2c(OCCN3CCN(S(=O)(=O)c4ccc(F)cc4F)CC3)cccc2n1` [Example-210, 5-{2-[4-(2,4-Difluoro-benzenesulfonyl)-piperazin-1-yl]-ethoxy}-quinazoline-2,4-diamine], which EC50 (SMN2 promoter; [3]) is on record?
A: Its EC50 is < 1 µM.

Q: And the IC50 ([1]; Table 5, read-out: hDHFR IC50)?
A: Its IC50 is < 20 µM.

Q: What does the source list for `Nc1nc(N)c2c(OCCN3CCN(S(=O)(=O)c4ccc(Cl)c(Cl)c4)CC3)cccc2n1` [Example-211, 5-{2-[4-(3,4-Dichloro-benzenesulfonyl)-piperazin-1-yl]-ethoxy}-quinazoline-2,4-diamine]?
A: EC50 (SMN2 promoter; [3]): < 1 µM; IC50 ([1]; Table 5, read-out: hDHFR IC50): < 20 µM

Q: For `Nc1nc(N)c2c(OCCN3CCN(C(=O)c4ccc(Cl)c(Cl)c4)CC3)cccc2n1` [Example-212, {4-[2-(2,4-Diamino-quinazolin-5-yloxy)-ethyl]-piperazin-1-yl}-(3,4-dichloro-phenyl)-methanone], which EC50 (SMN2 promoter; [3]) is on record?
A: The EC50 was < 1 µM.

Q: What about the IC50 ([1]; Table 5, read-out: hDHFR IC50) of the same molecule?
A: Its IC50 is < 20 µM.

Q: Which EC50 (SMN2 promoter; [3]) does the source give for `Nc1nc(N)c2c(OCCN3CCN(C(=O)c4ccccc4)CC3)cccc2n1` [Example-213, {4-[2-(2,4-Diamino-quinazolin-5-yloxy)-ethyl]-piperazin-1-yl}-phenyl-methanone] here?
A: The EC50 was < 1 µM.

Q: And the IC50 ([1]; Table 5, read-out: hDHFR IC50)?
A: Its IC50 is < 20 µM.

Q: Which EC50 (SMN2 promoter; Table 5, SMN2 promoter driving β-lactamase) does the source give for `Nc1nc(N)c2c(OCCN3CCN(C(=O)c4ccc(Cl)cc4)CC3)cccc2n1` [Example-214, (4-Chloro-phenyl)-{4-[2-(2,4-diamino-quinazolin-5-yloxy)-ethyl]-piperazin-1-yl}-methanone] here?
A: The EC50 was < 1 µM.

Q: And the IC50 ([1]; Table 5, read-out: hDHFR IC50)?
A: The IC50 was < 20 µM.

Q: Which results are given for `Nc1nc(N)c2c(OCCN3CCN(C(=O)c4ccccc4F)CC3)cccc2n1` [Example-215, {4-[2-(2,4-Diamino-quinazolin-5-yloxy)-ethyl]-piperazin-1-yl}-(2-fluoro-phenyl)-methanone]?
A: EC50 (SMN2 promoter; [3]): < 1 µM; IC50 ([1]; Table 5, read-out: hDHFR IC50): < 20 µM

Q: What does the source list for `Nc1nc(N)c2c(OCCN3CCN(Cc4ccccc4F)CC3)cccc2n1` [Example-216, 5-{2-[4-(2-Fluoro-benzyl)-piperazin-1-yl]-ethoxy}-quinazoline-2,4-diamine]?
A: EC50 (SMN2 promoter; [3]): < 1 µM; IC50 ([1]; Table 5, read-out: hDHFR IC50): 20 to 100 µM

Q: With `Nc1nc(N)c2c(OCCN3CCN(Cc4ccc(F)cc4F)CC3)cccc2n1` [Example-217, 5-{2-[4-(2,4-Difluoro-benzyl)-piperazin-1-yl]-ethoxy}-quinazoline-2,4-diamine] as the molecule, how does the EC50 (SMN2 promoter; [3]) read?
A: Its EC50 is < 1 µM.

Q: What about the IC50 ([1]; Table 5, read-out: hDHFR IC50) of the same molecule?
A: Its IC50 is 20 to 100 µM.

Q: Which “increase in production of functional SMN protein” value (SMN2 gene) does the source give for `CCCC(CCC)C(=O)O` [valproic acid] here?
A: The value was 30 to 50%.
